Measurements: ChEMBL document CHEMBL1201862, “PubChem BioAssay data set” (2004)
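Results reflect a 48-hour exposure of cells in 96-well plates to compound at five concentrations. GI50 is the concentration that inhibits growth by half.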 Active and inactive are the calls of the source. No stated cut-off is given here; in the data, active = GI50 up to about 1.1 µM and inactive = higher.

What was measured:
Test in all cases: DTP human tumour cell line panel, 48 h
[1] = system: COLO 205
[2] = system: OVCAR-4
[3] = system: UO-31
[4] = system: IGROV-1
[5] = system: LOX IMVI
[6] = system: A549
[7] = system: SNB-19
[8] = system: HT-29
[9] = system: NCI-H226
[10] = system: SNB-78
[11] = system: UACC-62
[12] = system: SK-MEL-28
[13] = system: UACC-257
[14] = system: HCT-116
[15] = system: SF-539
[16] = system: U-251
[17] = system: NCI-H460
[18] = system: OVCAR-8
[19] = system: EKVX
[20] = system: TK-10

Measured: GI50

CCOC(=O)/C(O)=C1\C(=O)N(C)C(=O)C1c1ccc(OC)c(OC)c1 (configuration not stated)
inactive: [1] > 100 µM | [2] > 100 µM | [3] > 100 µM | [4] > 100 µM | [5] > 100 µM | [6] > 100 µM | [7] > 100 µM | [8] > 100 µM | [9] > 100 µM | [10] > 100 µM | [11] > 100 µM | [12] > 100 µM | [13] > 100 µM | [14] > 100 µM | [15] > 100 µM | [16] > 100 µM | [17] > 100 µM | [18] > 100 µM | [19] > 100 µM

Brc1ccccc1/C=C\C1(c2ccccc2)OCCO1
inactive: [1] 19.6 µM | [2] 4.26 µM | [3] 7.83 µM | [4] 13.6 µM | [5] 3.34 µM | [6] 16 µM | [7] 15 µM | [8] 7.01 µM | [9] 18.3 µM | [11] 14.7 µM | [12] 18.8 µM | [13] 16.5 µM | [20] 16.6 µM | [14] 4.98 µM | [15] 10.4 µM | [16] 6.24 µM | [17] 14.1 µM | [18] 9.23 µM | [19] 15.8 µM

CN(C)C(CN)CC1=C(CC(CN)N(C)C)CCC1 (configuration not stated)
inactive: [1] > 100 µM | [2] > 100 µM | [3] > 100 µM | [4] > 100 µM | [5] > 100 µM | [6] > 100 µM | [7] > 100 µM | [8] > 100 µM | [9] > 100 µM | [10] > 100 µM | [11] > 100 µM | [12] > 100 µM | [13] > 100 µM | [14] > 100 µM | [15] > 100 µM | [16] > 100 µM | [17] > 100 µM | [18] > 100 µM | [19] > 100 µM

CCOc1cc(C(=O)O)c2c(ccc3ccc(OC)c(OC)c32)c1OC
inactive: [1] > 100 µM | [2] > 100 µM | [3] > 100 µM | [4] > 100 µM | [5] > 100 µM | [6] > 100 µM | [7] > 100 µM | [8] > 100 µM | [9] > 100 µM | [11] > 100 µM | [12] > 100 µM | [13] > 100 µM | [20] > 100 µM | [14] > 100 µM | [16] > 100 µM | [17] > 100 µM | [18] > 100 µM | [19] > 100 µM

COc1ccc(-c2c(C#N)c(NC(=S)NC(=O)c3ccccc3)nc3c2CCCC3)cc1OC
inactive: [1] > 100 µM | [2] 45.4 µM | [3] 35.2 µM | [4] 62.1 µM | [5] 49.7 µM | [6] 52.4 µM | [7] 68.2 µM | [8] 58.6 µM | [11] 44.5 µM | [12] 61.4 µM | [13] 46.6 µM | [20] 45.4 µM | [14] > 100 µM | [15] 30.2 µM | [16] 71.1 µM | [17] 35 µM | [18] 48.5 µM | [19] 24.5 µM

COc1cc2c(cc1OC)C(Cc1c3ccccc3cc3ccccc13)N(C)CC2 (configuration not stated)
inactive: [1] 11.2 µM | [2] 30.7 µM | [3] 13 µM | [4] 20.7 µM | [5] 18 µM | [6] 39.8 µM | [7] 22.2 µM | [8] 13.5 µM | [9] 24.1 µM | [10] 23.9 µM | [11] 17.8 µM | [12] 20.2 µM | [13] 18.9 µM | [14] 14.9 µM | [15] 19.5 µM | [16] 16.9 µM | [17] 20 µM | [18] 26.5 µM | [19] 25.6 µM

COCCOCOC(C)(C)[C@H](CCO)O[Si](c1ccccc1)(c1ccccc1)C(C)(C)C
inactive: [1] 15.9 µM | [3] 13 µM | [4] 9.14 µM | [5] 8.36 µM | [6] 6.32 µM | [7] 13.2 µM | [8] 8.61 µM | [10] 16.3 µM | [11] 12 µM | [12] 14.9 µM | [13] 8.77 µM | [20] 10.9 µM | [14] 3.67 µM | [15] 14.1 µM | [16] 11 µM | [17] 5.15 µM | [18] 10.4 µM | [19] 13.5 µM

CC1(C)N/C(=C\C=O)C(C)(C)N1O
inactive: [1] > 100 µM | [2] > 100 µM | [3] > 100 µM | [4] > 100 µM | [5] > 100 µM | [6] > 100 µM | [7] > 100 µM | [8] > 100 µM | [9] > 100 µM | [11] > 100 µM | [12] > 100 µM | [13] > 100 µM | [20] > 100 µM | [14] > 100 µM | [15] > 100 µM | [16] > 100 µM | [17] > 100 µM | [18] > 100 µM | [19] > 100 µM

CCCCN(CCCC)c1ccc(/N=N/c2ccc(S(=O)(=O)O)cc2)cc1
inactive: [1] 18.7 µM | [2] 17.8 µM | [3] 72.3 µM | [4] 14.7 µM | [5] 18.9 µM | [6] 39.8 µM | [7] 75.9 µM | [8] 26.4 µM | [11] > 100 µM | [12] 81.3 µM | [13] 94.4 µM | [20] 67.8 µM | [14] 15.6 µM | [15] 16.7 µM | [16] 32.3 µM | [17] 34 µM | [18] 22 µM | [19] 39.1 µM

O=C(NN1C(=O)CS(=O)(=O)C1c1ccc(C(F)(F)F)cc1)c1ccncc1 (configuration not stated)
inactive: [1] > 100 µM | [2] > 100 µM | [5] > 100 µM | [6] > 100 µM | [7] > 100 µM | [8] > 100 µM | [9] > 100 µM | [10] > 100 µM | [12] > 100 µM | [13] > 100 µM | [20] > 100 µM | [14] > 100 µM | [16] > 100 µM | [17] > 100 µM

CC1(C)CCc2ccc(OCCC(=O)O)cc2O1
inactive: [1] > 100 µM | [2] > 100 µM | [3] > 100 µM | [4] > 100 µM | [5] > 100 µM | [6] > 100 µM | [8] > 100 µM | [9] > 100 µM | [10] > 100 µM | [11] > 100 µM | [14] > 100 µM | [15] > 100 µM | [16] > 100 µM | [17] > 100 µM | [18] > 100 µM | [19] > 100 µM
